Among the data in PMC6934184, “Selective DNA-PKcs inhibition extends the therapeutic index of localized radiotherapy and chemotherapy” (The Journal of Clinical Investigation, 2019) are inhibition values, retold here.

In the experiment the target is T1, MAPK8 (JNK1) (Homo sapiens, UniProt P45983).
T1 construct: purchased Thermo Fisher Scientific (Life Technologies) SelectScreen
The experiment is described as follows: SelectScreen Z'LYTE. It counts as biochemical. The following applies: ATP 100 µM. The gist of the method: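 SelectScreen broad panel; activity (Z'LYTE, Adapta) plus binding formats. ATP: Km app for CSF1R Z'LYTE; 10 for CAMK1 Adapta. Readout = % per kinase.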

The structures appear in SMILES notation.

T1 sequence (P45983 whole entry): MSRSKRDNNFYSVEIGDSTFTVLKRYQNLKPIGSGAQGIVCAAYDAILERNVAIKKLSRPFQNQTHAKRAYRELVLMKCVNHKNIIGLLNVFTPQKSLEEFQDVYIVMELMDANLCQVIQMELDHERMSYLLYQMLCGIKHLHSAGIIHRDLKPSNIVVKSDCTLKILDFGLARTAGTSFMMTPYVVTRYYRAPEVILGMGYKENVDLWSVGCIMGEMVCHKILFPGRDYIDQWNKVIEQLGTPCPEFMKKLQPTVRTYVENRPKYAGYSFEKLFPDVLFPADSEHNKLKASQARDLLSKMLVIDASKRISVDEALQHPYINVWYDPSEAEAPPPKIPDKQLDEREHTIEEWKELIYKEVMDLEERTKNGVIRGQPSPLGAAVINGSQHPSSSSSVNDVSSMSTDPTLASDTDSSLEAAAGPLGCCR

On to `CN(C(=O)CN1CCOCC1)c1ccc2sc3c(-c4cccc5c(=O)cc(N6CC7CCC(C6)O7)oc45)cccc3c2c1` [NU5455], for which at 1 µM the inhibition was 12%.

As a reminder, the inhibition is the drop in the measured response relative to a control, in per cent. A lower inhibition goes with little suppression.
